Measured values published in patent US8093274B2, “Inhibitors of protein prenyltransferases” (The Regents of the University of California, priority 2006, dated 2012).

Assays:
K562 cells [1] = experiment: Cell cycle profile of K562 cells by flow cytometry; type: cell-based, human; conditions: 48 hours; 0 to 10 mM
Protocol: K562 cells were treated with indicated concentrations (mM) of P3-E5 (ranging from […]) or GGTI-298 (ranging from […]) for 48 hours. Cell cycle profiles were monitored by flow cytometry. Percentages of cells in each phase of the cell cycle are indicated by different colors. Red: G0/G1 phase. Black: S phase. Gray: G2/M phase.

[2] = molecular target: GGTase I (substrate RhoA) (Homo sapiens, UniProt P49354+P53609); experiment: GGTase I filter-binding assay with RhoA as substrate; type: biochemical
Protocol: The pilot library was screened for inhibitors of protein geranylgeranyltransferase type I. Protein prenyltransferase assays were carried out by using filter binding. Two different substrates, RhoA and K-Ras4B, were used for the assay. RhoA ends with the CaaL motif and is an exclusive substrate for GGTase I, while K-Ras4B ends with the CaaX motif and is modified by both GGTase I and FTase.
The % activity of GGTase I was determined as follows: a working solution that contained each compound in DMSO at the concentration of 1 mM was prepared. The working solution was added to GGTase I reaction mixture so that the final concentration of the compound is 50 μM. GGTase I activity was assayed by incubating [^3H]GGPP with K-Ras4B or RhoA protein in the presence of GGTase I and examining radioactivity incorporated into the substrate protein by spotting onto a filter paper. After washing with TCA, ethanol and acetone, the radioactivity retained on the filter was determined by the use of a scintillation counter. GGTase I activity in the presence of DMSO was taken as a 100% value and the activity in the presence of the compound was shown as percent activity compared with the 100% value. […] For 6-aryl-4-mercapto-N-sulfonyl-piperidine-3-carboxylic acid 11 the 4-mercapto substituent appeared critical to endowing GGTase inhibitory activity. […] 4-Chlorobenzylthio substituent was the next best; 12 compounds out of 21 containing the 4-chlorobenzylthio moiety were active. 4-Benzylthio substituent was also good; 7 piperidines out of 21 bearing 4-benzylthio group were active. […] 19 imines (C15>C12=C41>C40>C01=C11>C05=C10=C30=C35=C37=C38>C02, C03, C04, C06, C39=C43) out of 21 appeared in the GGTIs. […] This corresponds to 47 6-aryl-4-mercapto-N-sulfonyl-piperidine-3-carboxylic acids out of 357 compounds.
A collection of 138 heterocycles was screened for their ability to inhibit the activity of human GGTase-I to geranylgeranylate K-Ras4B or RhoA. Purified GGTase-1 was incubated with its substrate protein K-Ras4B or RhoA, [^3H]GGPP, and the 138 compounds. After 30 min, the degree of incorporation of tritiated geranylgeranyl groups was measured using a scintillation counter.
(§1) The GGTase-I assay was carried out using RhoA as a substrate protein, GGTase-I (JENA Bioscience) and [3H]geranylgeranyl pyrophosphate. Incubation was for 30 min at 37 C. GGTase-H (or RabGGTase) assay was carried out using YPT1 as a substrate protein, GGTase-H (Calbiochem, San Diego, Calif.) plus REP1 (Calbiochem) and [3H]geranylgeranyl pyrophosphate. Incubation was for 30 min at 37 C. FIGS. 20D-20F show the three dimensional structure of GGTase I (D), FTsse (E) and GGTase II (F) which can be obtained from X-ray diffraction studies of protein crystals.

[3] = test system: geranylgeranylated Rheb (Rheb-CSVL) in HEK 293 cells; experiment: Geranylgeranylation of Rheb-CVSL in HEK 293 cells, mobility shift on Western blot; type: cell-based, human; conditions: for inhibition of geranylgeranylation of Myc-HA tagged-Rheb-CVSL in cells: HEK 293 cells treated for 48 hours
Description: Finally, we investigated in vivo effects of compounds 22 (also known as UC-22) and 23 (also known as UC-23). Human embryonic kidney (HEK) 293 cells were transfected with the Rheb-CSVL construct that expresses the geranylgeranylated form of the Rheb protein. Inhibition of the geranylgeranylation of this protein can be detected from a shift in its mobility on SDS polyacrylamide gel; the unprocessed form appears as a slowly migrating band.
Human embryonic kidney (HEK) 293 cells expressing Myc-HA tagged-Rheb-CVSL (upper) or Myc-HA tagged-Rheb-WT (lower) were treated with P3-E5 for 48 hours and then lysed. The cell lysates were run on a SDS polyacrylamide gel and immunoblotted using anti-Myc or anti-Actin antibody. The descriptors P and U indicate processed and unprocessed Rheb, respectively.
Human embryonic kidney (HEK) 293 cells expressing Myc-HA tagged-Rheb-CVSL (upper) or Myc-HA tagged-Rheb-WT (lower) were treated with mP5-H6a (also referred to as mP5-H6), or GGTI-298 for 48 hours and then lysed. Lysates were run on a SDS polyacrylamide gel and immunoblotted with anti-Myc or anti-Actin antibody.

K562 cells [4] = experiment: Proliferation of K562 cells, cell counting kit-8; type: cell-based, human; conditions: 72 hours; relative to DMSO control
Protocol: (§2) K562 cells are a cell line of human erythroleukemia cells. The K562 cells were treated with P3-E5, P5-H6 or GGTI-298 (a known GGTI compound illustrated in FIG. 27) for 72 hours and then cell number was counted using cell counting kit-8 (Dojindo, Gaithersburg, Md.). Cell viability relative to the DMSO control and the known GGTI compound is plotted in FIG. 23.

GGTase-I = GGTase-I inhibition kinetics, double reciprocal plots; type: biochemical; conditions: varying GGPP with fixed RhoA
Protocol: as §1
The graphs in FIG. 21 show double reciprocal plots obtained from substrate velocity curves for the inhibition of GGTase-I by P3-E5 (left) and P5-H6 (right). The upper figures show varying GGPP concentrations with a fixed RhoA protein concentration were used. The lower figures show varying RhoA protein concentrations with a fixed GGPP concentration was used. The following scale was used to prepare the graphs: Y-axis: 1/v, fmol/min. X-axis: 1/s, mM.

[5] = molecular target: T1, protein farnesyltransferase (FTase) (Rattus norvegicus, UniProt Q02293+Q04631); experiment: Protein farnesyltransferase assay with K-Ras4B and [3H]FPP; type: biochemical
T1 construct: purchased JENA Bioscience
Description: To further characterize the pilot library, inhibitors of protein farnesyltransferase were identified. This was accomplished by using K-Ras4B as a substrate protein, tritiated farnesylpyrophosphate ([^3H]FPP) and protein farnesyltransferase. See Finegold, A. A., Johnson, D. I., Farnsworth, C. C., Gelb, M. H., Judd, S. R., Glomset, J. A. and Tamanoi, F. (1991) Protein geranylgeranyltransferase of Saccharomyces cerevisiae is specific for Cys-Xaa-Xaa-Leu motif and requires the CDC43 gene product but not the DPRI gene product. Proc. Natl. Acad. Sci. USA 88, 4448-4452. […] On the other hand, the structure of the compounds P1-F11, P2-B7 and P2-E9 resemble those of GGTIs. The FTI P1-F11 resembles the GGTI P1-F10, while the FTI P2-B7 resembles the GGTI P2-C10. The FTI P2-E9 is similar to the GGTI P2-G3. Similarity of some GGTI and FTI compounds may point to common structural features between the two closely related enzymes. As described before, FTase and GGTase I have similar three-dimensional structures and a shared alpha subunit. On the other hand, FTase specific inhibitors may recognize a region(s) that is different between the two enzymes.
Varying concentrations of the two compounds were added to each enzyme reaction. The FTase (protein farnesyltransferase) assay was carried out using K-Ras4B as a substrate protein, FTase (JENA Bioscience, San Diego, Calif.) and […] pyrophosphate. Incubation was for 30 min at 37 C.

MDA-MB231 = experiment: Proliferation of MDA-MB231 cells; type: cell-based, human
BT474 = experiment: Proliferation of BT474 cells; type: cell-based, human
MiaPaCa2 = experiment: Proliferation of MiaPaCa2 cells; type: cell-based, human
Jurkat cells = experiment: Proliferation of Jurkat cells; type: cell-based, human
Protocol: as §2
(§3) Panc-1 cells (Pancreatic cancer cell line) and Jurkat cells (T-cell leukemia) were treated with 12.5 μM of P5-H6 or 12.5 μM of mP5-H6a for 72 hours. The cell number was counted as described in Example 5.

Panc-1 cells = experiment: Proliferation of Panc-1 cells; type: cell-based, human
Protocol: as §2, §3

Row | SMILES | cell cycle effect in K562 cells (K562 cells [1]) | IC50 ([2]; FIG. 15, read-out: IC50 for the inhibition of GGTase I using RhoA as a substrate) [µM] | specificity of GGTase I inhibition ([2]; compared with FTase and GGTase-II, varying concentrations, FIGS. 20A-20C) | inhibition of geranylgeranylation of Myc-HA tagged-Rheb-CVSL in cells [3] | inhibition of geranylgeranylation of Rheb-CSVL within the cell ([3]; HEK 293 cells, FIG. 33) | inhibition of proliferation of K562 cells (K562 cells [4]) | mode of inhibition of GGTase-I (GGTase-I) | inhibition of FTase activity ([5]; FIG. 16, concentration increased to 100 μM) | inhibition of FTase ([5]; at concentrations at which they inhibited GGTase-I by more than 90%) | inhibition of proliferation of breast cancer cell line MDA-MB231 (MDA-MB231) | inhibition of proliferation of breast cancer cell line BT474 (BT474) | inhibition of proliferation of pancreatic cancer cell line MiaPaCa2 (MiaPaCa2) | inhibition of proliferation of leukemic cell line Jurkat (Jurkat cells) | inhibition of growth of Jurkat cells relative to P5-H6 (Jurkat cells; 12.5 μM, 72 hours) | inhibition of proliferation of pancreatic cancer cell line Panc-I (Panc-1 cells) | inhibition of growth of Panc-1 cells relative to P5-H6 (Panc-1 cells; 12.5 μM, 72 hours)
1 | Cc1ccccc1S(=O)(=O)N1[C@@H](c2cccc(Cl)c2)C(C(=O)O)=CC[C@H]1c1ccc(Cl)cc1 (relative stereo) [P3-E5] | induces G1 arrest in K562 cells | 7 | specifically inhibit GGTase I | inhibits geranylgeranylation in cells | inhibit geranylgeranylation within the cell | inhibit proliferation of K562 cells | compete with a substrate protein but do not compete with GGPP | no inhibition of FTase activity was observed | did not inhibit FTase |  |  |  |  |  |  | 
2 | COC(=O)[C@H](Cc1ccccc1)NCC(=O)OCC1=C[C@@H](C(C)(C)C)N(S(=O)(=O)c2ccccc2C)C1c1ccc(Cl)cc1 (some centres unmarked) [mP5-H6] |  |  |  | inhibits geranylgeranylation in vivo |  |  |  |  |  | inhibits proliferation | inhibits proliferation | inhibits proliferation | inhibits proliferation | inhibits the growth of Panc-1 cells and Jurkat cells better than P5-H6 | inhibits proliferation | inhibits the growth of Panc-1 cells and Jurkat cells better than P5-H6
